In patent publication US4000281A, “Pyrazole derivatives” (priority 1971, dated 1976):

Test system: rhinovirus type 9 (prototype)
Assay: Inhibition of rhinovirus cytopathogenic effect in human embryonic lung cultures, type 9
Format: cell-based
Conditions: 50 and 75 μgm/ml
Description: Other tests were carried out to determine the inhibitory effect of 3-(4-pyridyl)-4-(2-hydroxyphenyl)-5-ethylpyrazole on various types of rhinovirus.
In each test two cultures of human embryonic lung were prepared of which one was treated with the above compound while the other served as control. The cultures were then infected with a strain of rhinovirus. The compound was used in concentrations of 50 and 75 μgm/ml and was considered to be active if the cytopathogenic effect of the rhinovirus was reduced by at least 75% as compared to the control culture. This cytopathogenic effect was determined by counting the number of plaques formed by destroyed cells.
Seven human types of rhinovirus were employed and the following results registered: […]

Question: With `CCc1[nH]nc(-c2ccncc2)c1-c1ccccc1O` [Compound A, 3-(4-pyridyl)-4-(2-hydroxyphenyl)-5-ethylpyrazole] as the compound, how does the ACTIVITY read?
Answer: + (active)
